Results on 3 compounds are retold here after publication PMC10610545, “Preclinical Evaluation of an Imidazole-Linked Heterocycle for Alzheimer’s Disease” (Pharmaceutics, 2023).

Data set [1] has as its system human dopaminergic cell line SH-SY5Y. As to the kind of experiment: Cytotoxicity of compounds alone, MTT assay, SH-SY5Y. In kind it is cell-based. Conditions: 24 h, escalating concentrations. How it is done: In the study of neurotoxicity associated with AD, the HT22 mouse hippocampal neuronal cell line has been recognized as an effective cell model. HT22 cells were purchased from Merck-Sigma-Aldrich (SCC12, Madrid, Spain) and cultured in DMEM-F12 (Gibco, Fisher Scientific, Madrid, Spain) supplemented with foetal bovine serum (FBS, 10%) and 1% penicillin/streptomycin under standard conditions (37 °C, 5% CO2). The human dopaminergic cell line SH-SY5Y, in turn, has been widely used as an in vitro model to study the pathogenesis of PD associated with dopaminergic degeneration. Cells, acquired from the American Type Culture Collection (ATCC, Rockville, MD, USA, Ref.CRL-2266), were grown in RPMI medium (Gibco) supplemented with glutamine (2 mM), 10% FBS, and 1% penicillin/streptomycin under standard conditions. Semiconfluent cells (90%) were seeded on 96-well plates at 3 × 10^4 per well and incubated for 24 h before treatment.
Neuronal cultures, HT-22 and SH-SY5Y, seeded on 96-well plates were treated with LSL33, LSL34, and LSL60101 for 24 h, and viability was assessed using the MTT assay. […] Then, cultures were treated for 1h with LSL33 at 2 μM and LSL34 and LSL60101 at 1 μM. This dose was chosen based on previous studies. Subsequently, HT-22 cultures were exposed to glutamate (10 mM, Merck-Sigma), while SH-SY5Y cultures received 6-hydroxydopamine (6-OHDA, 35 μM, Merck-Sigma). The cells were then incubated for a minimum of 16 h. Finally, the cellular viability and nitrite production of the cultures were assessed.
The assessment of cell viability was conducted using the 3-(4,5-dimethylthiazol-2-yl)-5-(3-carboxymethoxyphenyl)-2-(4-sulfophenyl)-2H-tetrazolium (MTT) assay, following the instructions provided by the manufacturer (Roche Diagnostic, Darmstadt, Germany). […] The absorbance of the solution was measured at 595–650 nm using a spectrophotometer. The experiments were performed at least three times, and the results were expressed as a percentage of the control. […]
In general terms: Tetrazolium assays rely on reduction of a dye to a coloured formazan, in cell work by metabolically active cells.

The target of data set [2] is imidazoline I2 receptors (I2-IR). Briefly: Competition binding against [3H]2-BFI, membranes from post-mortem human frontal cortex. Conditions: for Ki: corresponds to pKiH, read-out: Ki of the high-affinity I2 site; for [3H]-2-BFI I2 pKi (One Site): monophasic fit; for [3H]-2-BFI I2 pKi (Two Sites), high affinity (pKiH) / [3H]-2-BFI I2 pKi (Two Sites), low affinity (pKiL): two-site model; for [3H]-2-BFI I2 pKi (Two Sites), high affinity (pKiH): high-affinity site; for [3H]-2-BFI I2 pKi (Two Sites), low affinity (pKiL): low-affinity site. The source says: The inhibition constant (Ki) for each compound was obtained and is expressed as the corresponding pKi. The selectivity for these two receptors was expressed by the I2/α2 index, calculated as the antilogarithm of the […] between pKi values for I2-IR and pKi values for α2-AR.
Preparation of cellular membranes.
Human brain samples were obtained at autopsy in the Basque Institute of Legal Medicine, Bilbao, Spain. Samples from the prefrontal cortex (Brodmann’s area 9) were dissected at the time of autopsy and immediately stored at -70 °C until assay. The study was developed in compliance with policies of research and ethical review boards for postmortem brain studies.
To obtain cellular membranes (P2 fraction) the different samples were homogenized using an ultraturrax in 10 volumes of homogenization buffer (0.25 M sucrose, 5 mM Tris–HCl, pH 7.4).
The crude homogenate was centrifuged for 5 min at 1000 g (4 °C) and the supernatant was centrifuged again for 10 min at 40,000 g (4 °C). The resultant pellet was washed twice in 5 volumes of homogenization buffer and recentrifuged in similar conditions. Protein content was measured according to the method of Bradford using BSA as standard.
Competition Binding Assays.
The pharmacological activity of the compounds was evaluated through competition binding studies against the I2-IR selective radioligand [3H]2-BFI or the α2-adrenergic receptor selective radioligand [3H]RX821002. Specific binding was measured in 0.25 mL aliquots (50 mM Tris-HCl, pH 7.5) containing 100 µg of membranes, which were incubated in 96-well plates either with […]
Incubations were terminated by separating free ligand from bound ligand by rapid filtration […]
counted for radioactivity by liquid scintillation spectrometry using a MicroBeta TriLux counter (PerkinElmer). Specific binding was determined and plotted as a function of the compound concentration. Nonspecific binding was determined in the presence of idazoxan (10–5 M), a compound with well stablished affinity for I2-IR and α2-adrenergic receptors, in [3H]2-BFI and [3H]RX821002 assays. To obtain the inhibition constant (Ki) analyses of competition experiments were performed by nonlinear regression using the GraphPad Prism program. Ki values were normalized to pKi values. I2-IR/α2 selectivity index was calculated as the antilogarithm of the difference between pKi values for I2-IR and pKi values for α2-ARs.

The nature of data set [3]: PAMPA-BBB permeation assay. In kind it is in vitro ADME, porcine. Conditions: pig, PBS/EtOH (70:30), mean ± SD, read-out: Permeability Pe. How it is done:
In vitro Blood-Brain Barrier Permeation Assay
To evaluate the brain penetration of the different compounds, a parallel artificial membrane permeation assay for blood-brain barrier was used, following the method described by Di et al.1 The in vitro permeability (Pe) of fourteen commercial drugs (see Table S1) through lipid extract of porcine brain membrane together with the test compounds were determined. Commercial drugs and assayed compounds were tested using a mixture of PBS:ETOH (70:30). Assay validation was made by comparing the experimental permeability with the reported values of the commercial drugs by bibliography and lineal correlation between experimental and reported permeability of the fourteen commercial drugs using the parallel artificial membrane permeation […]
From this equation and taking into account the limits established by Di et al. for BBB permeation, we established the ranges of permeability […]
predictive penetration in the CNS used as references.
1 Di, L.; Kerns, E. H.; Fan, K.; McConnell, O. J.; and Carter, G. T. High throughput artificial membrane permeability assay for blood-brain barrier.
For orientation: The PAMPA barrier holds no transporters, so it reflects passive diffusion.

The structures appear in SMILES notation.

For orientation: Ki means a measure of affinity in units of concentration, obtained from inhibition or displacement.

In the case of `Cl.c1ccc2sc(-c3ncc[nH]3)cc2c1` [LSL33, 2-(Benzo[b]thiophene-2-yl)-1H-imidazole hydrochloride], the “cytotoxicity (MTT viability)” value in data set [1] is listed as “None of the compounds tested were cytotoxic”. Further, in data set [2], the Ki worked out at 0.079 nM; the “[3H]-2-BFI I2 pKi (One Site)” value is recorded as 5.95 ± 0.24; the “[3H]-2-BFI I2 pKi (Two Sites), high affinity (pKiH)” value (shortened to “[3H]-2-BFI I2 pKi … (pKiH)”) was found to be 10.1 ± 0.57; the “[3H]-2-BFI I2 pKi (Two Sites), low affinity (pKiL)” value came out at 5.68 ± 0.25. In addition, the Papp in data set [3] is 81 ± 4 nm/s.

For the compound `Cl.c1ccc2oc(-n3ccnc3)cc2c1` [LSL34, 1-(Benzofuran-2-yl)-1H-imidazole hydrochloride], the “cytotoxicity (MTT viability)” value in data set [1] is on record as “None of the compounds tested were cytotoxic”. Besides, in data set [2], the “[3H]-2-BFI I2 pKi (One Site)” value worked out at 5.58 ± 0.31 and the “[3H]-2-BFI I2 pKi … (pKiH)” value was found to be 9.23 ± 0.36. The Papp in data set [3] amounted to 141 ± 5 nm/s.

Turning to `c1ccc2oc(-c3ncc[nH]3)cc2c1` [LSL60101, reference compound], the “cytotoxicity (MTT viability)” value in data set [1] is reported as “None of the compounds tested were cytotoxic”. For the same compound, the “Selectivity I2/α2” value in data set [2] (antilog (pKi I2-IR − pKi α2-AR)) worked out at 3090. Besides, in data set [2], the inhibition constant Ki amounted to 6.7 nM; the “[3H]-2-BFI I2 pKi (One Site)” value stood at 6.67 ± 0.09; the “[3H]-2-BFI I2 pKi … (pKiH)” value is recorded as 8.17 ± 0.19; the “[3H]-2-BFI I2 pKi (Two Sites), low affinity (pKiL)” value was determined as 6.02 ± 0.10. The Papp in data set [3] was found to be 136 ± 4 nm/s.
